Measured values: PubChem BioAssay AID2060883 (Molecular Pharmacology Branch, DTP, NCI, 2025)

System: 843782-103-R-J1-PDC complex spheroid viability
Assay: Anticancer human tumor 843782-103-R-J1-PDC patient-derived lung adenocarcinoma cell line growth inhibition [RAS]
Details: for viability, T/C: stronger effect = lower value
In short: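 Multi-cell-type spheroids: tumor cells plus HUVEC endothelial cells and mesenchymal stem cells. RAS-pathway inhibitors were combined with targeted agents, each dosed in half-log steps down from clinical Cmax, or from 10 microM when Cmax was unknown.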

[1] = curve of first compound, second compound 0.0316 µM
[2] = curve of first compound, second compound 0.1 µM
[3] = curve of first compound, second compound 0.316 µM
[4] = curve of first compound, second compound 1 µM
[5] = curve of first compound, second compound 3.16 µM
[6] = curve of first compound, second compound 10 µM
[7] = second compound 0.0316 µM, first compound 0.0316 µM
[8] = second compound 0.0316 µM, first compound 0.1 µM
[9] = second compound 0.0316 µM, first compound 0.316 µM
[10] = second compound 0.0316 µM, first compound 1 µM
[11] = second compound 0.1 µM, first compound 0.0316 µM
[12] = second compound 0.1 µM, first compound 0.1 µM
[13] = second compound 0.1 µM, first compound 0.316 µM
[14] = second compound 0.1 µM, first compound 1 µM
[15] = second compound 0.316 µM, first compound 0.0316 µM
[16] = second compound 0.316 µM, first compound 0.1 µM
[17] = second compound 0.316 µM, first compound 0.316 µM
[18] = second compound 0.316 µM, first compound 1 µM
[19] = second compound 1 µM, first compound 0.0316 µM
[20] = second compound 1 µM, first compound 0.1 µM
[21] = second compound 1 µM, first compound 0.316 µM
[22] = second compound 1 µM, first compound 1 µM
[23] = second compound 3.16 µM, first compound 0.0316 µM
[24] = second compound 3.16 µM, first compound 0.1 µM
[25] = second compound 3.16 µM, first compound 0.316 µM
[26] = second compound 3.16 µM, first compound 1 µM
[27] = second compound 10 µM, first compound 0.0316 µM
[28] = second compound 10 µM, first compound 0.1 µM
[29] = second compound 10 µM, first compound 0.316 µM
[30] = second compound 10 µM, first compound 1 µM
[31] = second compound 0.0316 µM, first compound 3.16 µM
[32] = second compound 0.0316 µM, first compound 10 µM
[33] = second compound 0.1 µM, first compound 3.16 µM
[34] = second compound 0.1 µM, first compound 10 µM
[35] = second compound 0.316 µM, first compound 3.16 µM
[36] = second compound 0.316 µM, first compound 10 µM
[37] = second compound 1 µM, first compound 3.16 µM
[38] = second compound 1 µM, first compound 10 µM
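Note: viability read after seven days of compound exposure.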

Compound `C=CC(=O)Nc1cc(Nc2nccc(-c3cn(C)c4ccccc34)n2)c(OC)cc1N(C)CCN(C)C` + C#Cc1c(F)ccc2cc(O)cc(-c3ncc4c(N5CC6CCC(C5)N6)nc(OCC56CCCN5CC(F)C6)nc4c3F)c12 has an IC50 [1] of over 1000 nM, an IC50 [2] of over 1000 nM and an IC50 [3] of over 1000 nM. It also gave an IC50 [4] of 595 nM, an IC50 [5] of 231 nM and an IC50 [6] of 57.6 nM. The viability, T/C (second compound 0.0316 µM, first compound 0.00316 µM) was 108%, the viability, T/C (second compound 0.0316 µM, first compound 0.01 µM) was 98.2% and the viability, T/C [7] was 101%. It also gave a viability, T/C [8] of 96.9%, a viability, T/C [9] of 94.6% and a viability, T/C [10] of 55.4%. It also gave a viability, T/C (second compound 0.1 µM, first compound 0.00316 µM) of 104%, a viability, T/C (second compound 0.1 µM, first compound 0.01 µM) of 94.7% and a viability, T/C [11] of 102%. For the same compound, the viability, T/C [12] was 97%, the viability, T/C [13] was 88.2% and the viability, T/C [14] was 64.2%. It also gave a viability, T/C (second compound 0.316 µM, first compound 0.00316 µM) of 105%, a viability, T/C (second compound 0.316 µM, first compound 0.01 µM) of 99.4% and a viability, T/C [15] of 101%. It also gave a viability, T/C [16] of 93.9%, a viability, T/C [17] of 80% and a viability, T/C [18] of 54.4%. It also gave a viability, T/C (second compound 1 µM, first compound 0.00316 µM) of 97%, a viability, T/C (second compound 1 µM, first compound 0.01 µM) of 90.7% and a viability, T/C [19] of 99.9%. It also gave a viability, T/C [20] of 88.9%, a viability, T/C [21] of 65.3% and a viability, T/C [22] of 37.6%. The viability, T/C (second compound 3.16 µM, first compound 0.00316 µM) was 90.3%, the viability, T/C (second compound 3.16 µM, first compound 0.01 µM) was 81.6% and the viability, T/C [23] was 88%. It also gave a viability, T/C [24] of 63.6%, a viability, T/C [25] of 46% and a viability, T/C [26] of 33.3%. The viability, T/C (second compound 10 µM, first compound 0.00316 µM) was 55.9%, the viability, T/C (second compound 10 µM, first compound 0.01 µM) was 54% and the viability, T/C [27] was 56.5%. The viability, T/C [28] was 44.7%, the viability, T/C [29] was 33.1% and the viability, T/C [30] was 4.02%.

In the case of `CC(=O)OC12COC1CC(O)C1(C)C(=O)C(O)C3=C(C)C(OC(=O)C(O)C(NC(=O)OC(C)(C)C)c4ccccc4)CC(O)(C(OC(=O)c4ccccc4)C21)C3(C)C` (configuration not stated) + C=CC(=O)N1CCN(c2nc(OCC3CCCN3C)nc3c(F)c(-c4nc(N)cc(C)c4C(F)(F)F)c(Cl)cc23)C(C)C1, the IC50 (curve of first compound, second compound 0.00316 µM) is reported as under 31.6 nM, the IC50 (curve of first compound, second compound 0.01 µM) is reported as under 31.6 nM and the IC50 [1] is reported as under 31.6 nM. For the same compound, the IC50 [2] was under 31.6 nM, the IC50 [3] was under 31.6 nM and the IC50 [4] was under 31.6 nM. It also gave a viability, T/C (second compound 0.00316 µM, first compound 0.0316 µM) of 3.83%, a viability, T/C (second compound 0.00316 µM, first compound 0.1 µM) of 3.97% and a viability, T/C (second compound 0.00316 µM, first compound 0.316 µM) of 4.72%. It also gave a viability, T/C (second compound 0.00316 µM, first compound 1 µM) of 5.04%, a viability, T/C (second compound 0.00316 µM, first compound 3.16 µM) of 6.7% and a viability, T/C (second compound 0.00316 µM, first compound 10 µM) of 7.46%. It also gave a viability, T/C (second compound 0.01 µM, first compound 0.0316 µM) of 3.55%, a viability, T/C (second compound 0.01 µM, first compound 0.1 µM) of 5.26% and a viability, T/C (second compound 0.01 µM, first compound 0.316 µM) of 5.77%. It also gave a viability, T/C (second compound 0.01 µM, first compound 1 µM) of 5.45%, a viability, T/C (second compound 0.01 µM, first compound 3.16 µM) of 4.97% and a viability, T/C (second compound 0.01 µM, first compound 10 µM) of 8.21%. For the same compound, the viability, T/C [7] was 4.29%, the viability, T/C [8] was 4.99% and the viability, T/C [9] was 5.82%. It also gave a viability, T/C [10] of 4.83%, a viability, T/C [31] of 5.52% and a viability, T/C [32] of 6.14%. The viability, T/C [11] was 4.07%, the viability, T/C [12] was 4.89% and the viability, T/C [13] was 5.53%. It also gave a viability, T/C [14] of 6.37%, a viability, T/C [33] of 3.49% and a viability, T/C [34] of 6.77%. It also gave a viability, T/C [15] of 3.97%, a viability, T/C [16] of 3.89% and a viability, T/C [17] of 3.73%. The viability, T/C [18] was 5.43%, the viability, T/C [35] was 5.26% and the viability, T/C [36] was 7.59%. It also gave a viability, T/C [19] of 4.07%, a viability, T/C [20] of 3.8% and a viability, T/C [21] of 4.24%. The viability, T/C [22] was 3.62%, the viability, T/C [37] was 4.03% and the viability, T/C [38] was 7.53%.

`CC1(O)CCCC1n1c(=O)c(C(F)F)cc2cnc(NC3CCN(S(C)(=O)=O)CC3)nc21` (configuration not stated) was tested, and the viability, T/C (compound 0.0316 µM) was 103% [middle of 4 runs], the viability, T/C (compound 0.316 µM) was 31.9% [middle of 4 runs] and the viability, T/C (compound 1 µM) was 37.1% [middle of 4 runs]. For the same compound, the viability, T/C (compound 3.16 µM) was 23.7% [middle of 4 runs], the viability, T/C (compound 10 µM) was 3.54% [middle of 4 runs] and the IC50 (curve of compound) was 307 nM [middle of 4 runs].

`CCC(CC)c1cc(NC2CCC(N)C2)n2nccc2n1` (configuration not stated) + C#Cc1c(F)ccc2cc(O)cc(-c3ncc4c(N5CC6CCC(C5)N6)nc(OCC56CCCN5CC(F)C6)nc4c3F)c12 was tested, and the IC50 [1] was 1850 nM, the IC50 [2] was 1900 nM and the IC50 [3] was 1820 nM. The IC50 [4] was 1740 nM, the IC50 [5] was 1260 nM and the IC50 [6] was 642 nM. For the same compound, the viability, T/C [7] was 107%, the viability, T/C [8] was 102% and the viability, T/C [9] was 100%. The viability, T/C [10] was 108%, the viability, T/C [31] was 2.66% and the viability, T/C [32] was 0.77%. For the same compound, the viability, T/C [11] was 112%, the viability, T/C [12] was 105% and the viability, T/C [13] was 114%. For the same compound, the viability, T/C [14] was 111%, the viability, T/C [33] was 2.16% and the viability, T/C [34] was 0.62%. For the same compound, the viability, T/C [15] was 113%, the viability, T/C [16] was 109% and the viability, T/C [17] was 99.4%. For the same compound, the viability, T/C [18] was 102%, the viability, T/C [35] was 2.35% and the viability, T/C [36] was 0.68%. It also gave a viability, T/C [19] of 89.2%, a viability, T/C [20] of 98% and a viability, T/C [21] of 96.7%. For the same compound, the viability, T/C [22] was 95.2%, the viability, T/C [37] was 1.42% and the viability, T/C [38] was 0.57%. It also gave a viability, T/C [23] of 86.4%, a viability, T/C [24] of 83.9% and a viability, T/C [25] of 91.3%. It also gave a viability, T/C [26] of 62.4%, a viability, T/C (second compound 3.16 µM, first compound 3.16 µM) of 2.2% and a viability, T/C (second compound 3.16 µM, first compound 10 µM) of 0.56%. For the same compound, the viability, T/C [27] was 67.2%, the viability, T/C [28] was 59.9% and the viability, T/C [29] was 64.2%. For the same compound, the viability, T/C [30] was 41.5%, the viability, T/C (second compound 10 µM, first compound 3.16 µM) was 0.51% and the viability, T/C (second compound 10 µM, first compound 10 µM) was 0.22%.
